Laboratory results from patent US20160187553A1, “METHOD OF MANUFACTURING POLARIZING PLATE, POLARIZING PLATE MANUFACTURED USING THE METHOD, AND LIQUID CRYSTAL DISPLAY DEVICE” (Konica Minolta, Inc., priority 2010, published 2016).
Where two headings read alike, the source gives them in different places.

Experiments:
[1] = logP of additives A and B of the protective films
[2] = reference liquid; cited from earlier work

Row | Compound | logP ([1]; additive of protective film) | logP [1] | γLd [2] [mN/m] | γLh [2] [mN/m] | γLp [2] [mN/m]
1 | O=P(Oc1ccccc1)(Oc1ccccc1)Oc1ccccc1-c1ccccc1 [BDP, Biphenyldiphenyl phosphate] | 7.3 |  |  |  | 
2 | CCC(COC(=O)c1ccccc1)(COC(=O)c1ccccc1)COC(=O)c1ccccc1 [Compound 16] |  | 7.9 |  |  | 
3 | CCOC(=O)COC(=O)c1ccccc1C(=O)OCC [EPEG, Ethylphthalyl ethylglycolate] |  | 2.3 |  |  | 
4 | O=C(OCC(COC(=O)c1ccccc1)(COC(=O)c1ccccc1)COC(=O)c1ccccc1)c1ccccc1 [PETB, pentaerythritol-tetrabenzoate] |  | 9.9 |  |  | 
5 | O=P(Oc1ccccc1)(Oc1ccccc1)Oc1ccccc1 [TPP, Triphenyl phosphate] |  | 5.6 |  |  | 
6 | ICI [diiodomethane] |  |  | 51.0 | 0.0 | 0.0
7 | C[N+](=O)[O-] [nitromethane] |  |  | 18.3 | 0.0 | 17.7
8 | O [water] |  |  | 30.4 | 42.4 | 0.0
